The source of these data is US11446304B2, “CDC-7-inhibitor compounds and use thereof for the treatment of neurological conditions” (CONSEJO SUPERIOR DE INVESTIGACIONES CIENTIFICAS (CSIC), priority 2017, dated 2022).

One series has as its target T1, human recombinant CDC7 (Homo sapiens, UniProt O00311).
T1 construct: purchased Promega V5089
In words: CDC7 inhibition measurement (ADP-Glo technology). Format: biochemical. The settings on record: ATP 10 μM, 60 min at room temperature; read-out: CDC7 ADP-Glo ™ CI50. The method, then:
The method used is a non-radioactive enzyme inhibition assay using human recombinant CDC7. It is based on luminometric quantification of inhibition using the ADP-Glo™ Kinase Kit. In this test the luminescent signal correlates positively with the amount of adenosine diphosphate (ADP) and the activity of the kinase. […]
CDC7 enzyme inhibition studies were conducted using the promega kit: ADP-Glo™ Kinase Assay+CDC7/DBF4 Kinase Enzyme System (Catalogue No. V5089). ATP and other reagents were purchased in Sigma-Aldrich (St. Louis, Mo.). The trials were performed in a buffer solution using 96-well plates. The compound to be tested (5 μL, 40 μM dissolved in DMSO 4%) was added to each well followed by the enzyme (5 μL, 25 ng/well), ATP (5 μL, final concentration in well 10 μM) and PDKtidE (5 μL, 4 μg/well). It was then incubated for 60 minutes at room temperature and the reagent ADP-Glo™ (20 μL) was added and incubated again for 40 min at room temperature. After incubation, the kinase detection agent (40 μL) was added and incubated for 30 min at room temperature. Finally, the luminescence (integration time of 0.5-1 sec) was measured using a POLARstar Optima multimode reader polarimeter. Inhibition activities were calculated as a function of maximum activity, measured in the absence of inhibitor.
For orientation: ADP-Glo first removes unused ATP, then detects ADP through luciferase.

Series [1] concerns human SH-SY5Y neuroblastoma cells. Briefly: Neuroprotective effect against ethacrynic acid, cell viability by MTT. In kind it is cell-based. The following applies: ethacrynic acid 20 μM for 12 hours, inhibitors at 10 μM, FIG. 2. On the procedure: FIG. 2. […] The data represent the mean of four different±SEM experiments (*p<0.05).
The human neuroblastoma cell line SH-SY5Y was cultured at 37° C. with 5% CO2 in DMEN medium (Dulbecco's Modified Eagle Medium) enriched with L-glutamine (2 mM), 1% non-essential amino acids, 1% Penicillin/Estreptomycin and 10% fetal bobin serum. In the semiconfluence state, the cells were treated with CDC7 inhibitors (compounds 1 and 8) at different concentrations for 1.30 hours post-addition of the causative agent of TPD-43 phosphorylation; ethacrynic acid ([…]) (Sigma). […] J Immunol Methods. 1987; 89:271-7) and levels of western blot phosphorylated TDP-43 (FIG. 2).

A short description of series [2]: PAMPA blood-brain barrier permeation (porcine brain lipid). In kind it is in vitro ADME. The settings on record: for Papp at 2.5 h: PAMPA-BHE, PBS pH 7.4/EtOH 70:30, 2 h 30 min at 25° C., mean ± SD, read-out: Pe; for PAMPA prediction of central nervous system (CNS) penetration: from Pe in PAMPA-BHE. An excerpt: An essential requirement for drugs for the treatment of neurodegenerative diseases is the ability to cross the blood-brain barrier (BBB), as otherwise they could not act on the target of interest. Therefore, for compounds that are not permeable or located in the area of uncertainty, it may be necessary to properly convey a pharmaceutical formulation through methods known to an expert in the field, such as encapsulation. This capability can be predicted in vitro using a method known by the acronym PAMPA (Parallel Artificial Membrane Permeability Assay) described by Di et al (Di, L.; Kerns, E. H.; Fan, K.; McConnell, O. J.; Carter, G. T. Eur. J. Med. Chem. 2003, 38 (3), 223-232) and which has subsequently been fine-tuned in our research group. This method allows predicting the effective permeability through artificial membranes by means of a passive diffusion process.
First of all, it is necessary to validate the method, for which 10 commercial compounds are used whose penetration capacity in the central nervous system (CNS) is known and which are to be specified below, obtaining in this case a good linear correlation between the experimental permeability values (Pe) and those described (FIG. 1). This correlation line obtained following the pattern described in the bibliography allows establishing the limits to predict whether or not a compound can cross the blood-brain barrier. Thus, a compound is considered BBB permeable (SNC+) if it has a permeability>4.48×10^−6 cm-s^−1.
For the procedure, between 3-5 mg of caffeine, desipramine, enoxacin, hydrocortisone, ofloxacin, piroxicam and testosterone, 12 mg of promazine and 25 mg of atenolol and verapamil were taken and dissolved in EtOH (1000 μL). 100 μL of these solutions were taken and EtOH (1400 μL) and phosphate buffer (PBS) pH=7.4 (3500 μL) were added in order to achieve a final EtOH concentration of 30% v/v in solution. Finally, the dissolutions were filtered.
On the other hand, a PBS/EtOH solution (70:30) was added to each well of the acceptance plate (180 μL). The donor plate was impregnated with a porcine brain lipid solution (4 μL) dissolved in dodecane (20 mg mL^−1). After 5 min, dissolution of each compound was added to this plate (180 μL).
Of the compounds 1 to 10 evaluated, 1-2 mg were taken and dissolved in EtOH (1500 μL) and phosphate buffer (PBS) pH=7.4 (3500 μL), filtered and added to the donor plate. With these solutions, the wavelengths at which the compounds absorb are determined and the initial absorbance levels at these wavelengths are measured using a UV absorbance reader. Each sample was analyzed from two to five wavelengths, in three wells and in two independent experiments.
The donor plate was then deposited on the acceptor forming a kind of “sandwich” and incubated for 2 hours and 30 minutes at 25° C. In this way, the compounds will pass from the donor plate to the acceptor plate through the porcine brain lipid by passive diffusion. After that time, the donor plate is carefully removed and the concentration and final absorbance of both commercial and synthesized compounds is determined. The results obtained are expressed as the mean of the measurements [standard deviation (SD)] of the different experiments carried out and are shown in table 2.

Series [3] addresses human recombinant CDC7/DBF4 (Homo sapiens, UniProt O00311). Briefly: CDC7 inhibition measurement (LanthaScreen Eu kinase binding, FRET). The following applies: CDC7/DBF4 0.5 nM, 60 min at room temperature; read-out: CDC7 Lantha ™ CI50. An excerpt:
The LanthaScreen Eu kinases inhibition assay uses an Alexa marker Fluor™ that binds to a kinase and is detected by the addition of an Eu-marked antibody. The binding of the marker and the antibody to the kinase results in a high degree of FRET, while the displacement of the marker by an inhibitor results in a loss of FRET. Unlike many other kinase activity tests, this is a simple mix and read test, with no developmental stages. This test method has been developed by Life Technologies and identifies competitive ATP kinase inhibitors, making them suitable for the detection of any compound that binds to the ATP site.
The compounds are evaluated at 1% DMSO (final) in the well. A mixture of human recombinant CDC7/DBF4 (0.5 nM), Eu-antiGST antibody (2 nM) and AlexaFluor marker (1 nM) has been used in a buffer of 50 mM HEPES pH 7.5, 0.01% BRIJ-35, 10 mM MgCl2, 1 mM EGTA in white plates of […], low volume, coded (Greiner cat. #784207), 160 nL (100×100% DMSO compound), 3.84 μL (buffer with CDC7/DBF4), 8.0 μL (antibody), 4.0 μL (marker) are added. Agitate 30 s and incubate at room temperature for 60 min. Then measure the fluorescence in the plate reader and analyze the data (Table 1).

The test system of series [4] is TDP-43 phosphorylation (S409/410). Briefly: Effect on phosphorylation of TDP-43 (western blot). In kind it is cell-based, human. The settings on record: SH-SY5Y cells, 24 h incubation with ethacrynic acid, FIG. 3. On the procedure:
FIG. 3. Sample of the effect of CDC7 inhibitors (compounds 1, 8, 9 and 13) on TDP-43 phosphorylation. Quantification and representation of phosphorylated TDP-43 levels by western blot.
To evaluate the levels of TDP-43 phosphorylated in the presence of CDC7 inhibitors (compounds 1 and 8), the cells after 24 h of incubation with ethacrylic acid were washed with PBS and then cold lysed with lysis buffer (50 mM Tris pH 7.4, 150 mM NaCl, 50 mM NaF, 1% Nonidet P-40 and Protease and phosphatase inhibitors (Roche)). The collected cell extracts were centrifuged for 10 minutes at 4,000 rpm. Protein quantification was performed with the Pierce BCA protein assay kit (Thermo Scientific). 10 μg of protein were loaded into the polyacrylamide gel with SDS and subsequently transferred to a polyvinylidene fluoride (PVDF) membrane (Millipore).

T1 sequence (O00311 whole entry): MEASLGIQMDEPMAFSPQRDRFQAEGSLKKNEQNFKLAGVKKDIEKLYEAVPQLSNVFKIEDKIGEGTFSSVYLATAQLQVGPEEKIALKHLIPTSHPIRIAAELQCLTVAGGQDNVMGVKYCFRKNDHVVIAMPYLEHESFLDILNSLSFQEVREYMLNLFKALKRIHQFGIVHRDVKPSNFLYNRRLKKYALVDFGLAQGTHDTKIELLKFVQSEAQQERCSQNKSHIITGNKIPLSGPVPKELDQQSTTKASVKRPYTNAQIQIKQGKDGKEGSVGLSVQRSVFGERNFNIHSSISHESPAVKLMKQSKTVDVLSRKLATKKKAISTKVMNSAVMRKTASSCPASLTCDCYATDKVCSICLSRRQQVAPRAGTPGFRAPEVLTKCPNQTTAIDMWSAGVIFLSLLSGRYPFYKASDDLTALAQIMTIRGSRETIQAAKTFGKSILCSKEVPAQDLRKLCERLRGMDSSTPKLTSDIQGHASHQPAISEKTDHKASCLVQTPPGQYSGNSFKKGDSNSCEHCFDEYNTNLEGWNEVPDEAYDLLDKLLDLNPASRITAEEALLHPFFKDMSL
T1 sequence (Q9UBU7 whole entry partner): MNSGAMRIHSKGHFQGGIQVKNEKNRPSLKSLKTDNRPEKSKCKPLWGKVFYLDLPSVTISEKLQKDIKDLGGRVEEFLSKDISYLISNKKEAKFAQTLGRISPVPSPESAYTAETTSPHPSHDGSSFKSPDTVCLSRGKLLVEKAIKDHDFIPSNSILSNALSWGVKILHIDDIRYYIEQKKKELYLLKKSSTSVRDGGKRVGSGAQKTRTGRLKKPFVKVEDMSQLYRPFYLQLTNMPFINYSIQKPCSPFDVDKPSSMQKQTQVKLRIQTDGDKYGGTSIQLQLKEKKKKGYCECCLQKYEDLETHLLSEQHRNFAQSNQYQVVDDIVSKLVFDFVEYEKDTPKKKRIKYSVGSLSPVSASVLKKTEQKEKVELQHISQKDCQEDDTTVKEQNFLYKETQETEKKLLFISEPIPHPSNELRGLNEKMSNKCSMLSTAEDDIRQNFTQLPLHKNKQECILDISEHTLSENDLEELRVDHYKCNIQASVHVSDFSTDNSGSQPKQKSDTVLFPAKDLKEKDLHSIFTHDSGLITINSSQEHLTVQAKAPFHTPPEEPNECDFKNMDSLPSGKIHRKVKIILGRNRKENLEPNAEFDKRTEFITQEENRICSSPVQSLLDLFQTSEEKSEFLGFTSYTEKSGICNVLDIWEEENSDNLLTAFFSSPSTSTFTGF
human recombinant CDC7/DBF4, sequence (O00311 whole entry): as the sequence (O00311 whole entry) above
human recombinant CDC7/DBF4, sequence (Q9UBU7 whole entry partner): as the sequence (Q9UBU7 whole entry partner) above

With `Ic1cccc(CSc2ncnc3[nH]cnc23)c1` [Compound 9, 6-((3-Iodobenzyl)thio)-9H-purine], the melting point (in general, the temperature, or range, at which the solid turns liquid) fell in the range of 185 to 187 °C. Also, the IC50 on human recombinant CDC7 came to 3340 ± 270 nM. Moreover, the “neuroprotective effect (cell viability)” value in series [1] is recorded as “neuroprotective effect”. Further, in series [2], the Papp at 2.5 h was 13.8 ± 2.5 ×10⁻⁶ cm/s and the “PAMPA prediction of central nervous system (CNS) penetration” value (shortened to “PAMPA prediction”) was “SNC+ (a compound is considered BBB permeable (SNC+) if it has a permeability>4.48×10^−6 cm-s^−1)”. In addition, in series [3], the IC50 stood at 86 nM.

Turning to `c1ccc(CSc2ncnc3[nH]cnc23)cc1` [Compound 1, 6-(benzylthio)-9H-purine], in series [4], the “phosphorylated TDP-43 levels” value is recorded as “reduce phosphorylation of TDP-43”. Further, the IC50 on human recombinant CDC7 is 6740 ± 350 nM; in series [3], 125 nM. Further, the “neuroprotective effect (cell viability)” value in series [1] was “neuroprotective effect”. In series [2], the Papp at 2.5 h came out at 6.2 ± 1.1 ×10⁻⁶ cm/s. Further, the “PAMPA prediction” value in series [2] was “SNC+ (a compound is considered BBB permeable (SNC+) if it has a permeability>4.48×10^−6 cm-s^−1)”.

Molecule `Clc1cccc(CSc2ncnc3[nH]cnc23)c1` [Compound 8, 6-((3-Chlorobenzyl)thio)-9H-purine] came in with a melting point of 167 to 169 °C. Also, the “phosphorylated TDP-43 levels” value in series [4] is given as “reduce phosphorylation of TDP-43”. Also, the IC50 at human recombinant CDC7 was 5210 ± 380 nM. Also, the “neuroprotective effect (cell viability)” value in series [1] was “neuroprotective effect”. In addition, in series [2], the Papp at 2.5 h worked out at 15.1 ± 0.6 ×10⁻⁶ cm/s and the “PAMPA prediction” value is given as “SNC+ (a compound is considered BBB permeable (SNC+) if it has a permeability>4.48×10^−6 cm-s^−1)”. Besides, in series [3], the IC50 is 172 nM.

On to `Brc1ccccc1CSc1ncnc2[nH]cnc12` [Compound 13, 6-((2-bromobenzyl)thio)-9H-purine], for which the melting point lay within 209 to 211 °C. The IC50 at human recombinant CDC7 came to 6240 ± 990 nM. Moreover, in series [1], the “neuroprotective effect (cell viability)” value is given as “neuroprotective effect”. Moreover, in series [2], the Papp at 2.5 h is 13.1 ± 0.1 ×10⁻⁶ cm/s and the “PAMPA prediction” value is “SNC+ (a compound is considered BBB permeable (SNC+) if it has a permeability>4.48×10^−6 cm-s^−1)”. Besides, in series [3], the IC50 is 275 nM.

The molecule `Clc1cccc(COc2ncnc3[nH]cnc23)c1` [Compound 6, 6-((3-chlorobenzyl)oxy)-9H-purine] gave a melting point of 197 to 199 °C. The IC50 on human recombinant CDC7 amounted to 8980 ± 210 nM. In series [2], the Papp at 2.5 h worked out at 7.2 ± 0.6 ×10⁻⁶ cm/s and the “PAMPA prediction” value was “SNC+ (a compound is considered BBB permeable (SNC+) if it has a permeability>4.48×10^−6 cm-s^−1)”. In addition, the IC50 in series [3] was determined as 194 nM.

The molecule `c1ccc2c(CSc3ncnc4[nH]cnc34)cccc2c1` [Compound 2, 6-((Naphthalene-1-ylmethyl)thio)-9H-purine] returned a melting point of 221 to 222 °C. Moreover, on human recombinant CDC7, the IC50 was found to be 11200 ± 840 nM. In series [2], the Papp at 2.5 h is 13.2 ± 2 ×10⁻⁶ cm/s and the “PAMPA prediction” value was “SNC+ (a compound is considered BBB permeable (SNC+) if it has a permeability>4.48×10^−6 cm-s^−1)”. Further, the IC50 in series [3] turned out to be 347 nM.
